According to patent US9079915B2, “Thienyl- and furanyl-isoquinolinones and methods for using them” (priority 2008, dated 2015):

What was measured:
Format in all cases: in vivo
[1] = tested on: Wistar rats, 90 min tMCAO; assay: Transient middle cerebral artery occlusion (tMCAO) model; details: tMCAO rat
Procedure: (§1) Adult male Wistar rats (Charles River, Wilmington, Mass.) 290-310 g were used in all studies. Animal procedures were approved by the Institutional Animal Care and Use Committee and conducted in accordance with the guidelines of the National Institutes of Health.
(§2) Rats were anesthetized with 3% isoflurane in a mixture of 70% nitrous oxide and 30% oxygen through a nose cone. Core body temperature was maintained at 37° C. throughout the surgery using a heating lamp. tMCAO was induced for 90 min using the intraluminal suture method (Longa et al., Reversible middle cerebral artery occlusion without craniectomy in rats. Stroke 20:84-91, 1989). Briefly, an 18 mm length of 4-0 monofilament nylon suture coated with poly-L-lysine (Belayev et al., 1996) with a flame-rounded tip was inserted into the external carotid artery and advanced into the internal carotid to occlude the origin of the MCA Ninety minutes later rats were re-anesthetized, the suture withdrawn and the incision closed. Drug (test compound) or vehicle, were administered into the tail vein as a 3 IV bolus doses 3 hours apart in a volume of 2 ml/kg starting at 4 hours post-induction of stroke at various time intervals after the induction of stroke. Animals were tested for motor deficits using a scoring system described by (Bederson et al., 1986). A Bederson score of 5 (maximum) at 90 minutes post-induction of tMCAO was a criterion for inclusion in the trial. Motor deficits and body weight were monitored at 24 and 48 hours post-tMCAO. Neurological deficits were assessed by blinded operators. Rats were sacrificed at 48 hours post-tMCAO. Sham-operated controls were subjected to identical surgical procedures but without advancement of the monofilament into the MCA branching point. The same model was also used, but in addition to occlusion of middle cerebral arteries, both carotid arteries were occluded (CCAO) for the same time 90 minutes. This was Severe Transient MCAO.
(§3) After sacrifice, brains were extracted and 2 mm coronal sections were cut starting at 4 mm from the frontal pole using a rat brain matrix (Stoeling, Wood Dale, Ill.). Sections were stained by immersion in a 2% solution of 2,3,5-triphenyl tetrazolium chloride at 37° C. for 10 minutes and then in 10% neutral formalin for preservation. Digitized images of sections were collected using the MCID image analysis system (Imaging Research, Inc. Ontario, Canada), and the area of infarct determined for each slice. Total infarct volume was calculated by multiplying a sum of areas by the distance between them in mm.
Values are expressed as means±SEM for the indicated number of animals or number of in vitro experiments. The statistical significance of differences between means was calculated by one-way ANOVA with post-hoc Fisher test or Dunnett's comparison to control or with Student's t-test analysis, as appropriate. Linear mix model was used to assess differences between treatment groups during 3-week neurological function recovery testing post-pMCAO. Statistical significance was assumed at p<0.05.
The first study was conducted using a transient middle cerebral artery occlusion (tMCAO) model. Rats were subjected to 90 minutes tMCAO and compound (2-dimethylaminomethyl-9-hydroxythieno[2,3-c]isoquinolin-5(4H)-one) was administered using 3 bolus injections at 4, 7 and 10 hours post-ischemia and an intraperitoneal (IP) route of administration. The three doses evaluated were 0.1, 1 and 10 mg/kg. Dosing was initiated at 4 hours post-MCAO because it is a clinically relevant therapeutic time window to treatment. Infarct volumes and neurological testing were carried out at 48 hours post-ischemia. This model produces an extensive unilateral lesion that involves the motor cortex and striatum. It is used to assess acute neuroprotection and neurological function in a reperfusion model of stroke. […]

[2] = tested on: Wistar rats, severe permanent MCAO; assay: Severe permanent MCAO model (intraluminal suture not removed); details: severe permanent MCAO rat, 3×1 mg/kg IP from 30 minutes post-ischemia, 24 hours
[3] = tested on: Wistar rats, severe tMCAO; assay: Severe tMCAO model (MCA and both carotid arteries temporarily occluded); details: severe tMCAO rat, 48 hours
Procedure: as §1
as §2, with “Sham-operated controls were subjected to identical surgical procedures but without advancement of the monofilament into the MCA branching point. The same model was also used, but in addition to occlusion of middle cerebral arteries, both carotid arteries were occluded (CCAO) for the same time 90 minutes. This was Severe Transient MCAO.” left out
as §3, with “Sections were stained by immersion in a 2% solution of 2,3,5-triphenyl tetrazolium chloride at 37° C. for 10 minutes and then in 10% neutral formalin for preservation.” left out
Values are expressed as means±SEM for the indicated number of animals or number of in vitro experiments. The statistical significance of differences between means was calculated by one-way ANOVA with post-hoc Fisher test or Dunnett's comparison to control or with Student's t-test analysis, as appropriate. […]
In a third assay, a severe tMCAO model was used (where both MCAO and carotid arteries were temporarily occluded) to obtain an injury. […] Doses of 1 or 10 mg/kg of 2-dimethylaminomethyl-9-hydroxythieno[2,3-c]isoquinolin-5(4H)-one were given at 4, 7 and 10 hours and animals were evaluated for infarct size, weight loss and neurological score at 48 hours post-MCAO.

Wistar rats, pMCAO = assay: Less severe permanent MCAO (pMCAO, distal MCA occlusion) model; details: pMCAO rat
Procedure: Adult male Wistar rats (Charles River, Wilmington, Mass.) 290-310 g were used in all studies. Animal procedures were approved by the Institutional Animal Care and Use Committee and conducted in accordance with the guidelines of the National Institutes of Health. Craniotomy was performed under isoflurane anesthesia. This was followed by electrocauterization of the distal portion of the MCA and a 90 minute ligation of both carotid arteries to limit collateral circulation during the initial stage of stroke, as described by Chen, et al. (Chen et al., 1986). Compound or vehicle, were administered as infusion starting at 4 hours post-induction of stroke and lasting 24 hours. Animals were maintained for long-term functional recovery assessment. Sensorimotor and reflex deficits were evaluated at 3-day intervals for 90 days according to (Bederson et al., 1986; De Ryck et al., 1989). Each trial included: postural test, two visual and two tactile forelimb placement tests and a hind limb placement test. Performance at each test was scored from 0 (no deficit) to 2 (severe deficit) for a maximum combined score of 12. Neurological scoring was performed in a blinded fashion. Values are expressed as means±SEM for the indicated number of animals or number of in vitro experiments. The statistical significance of differences between means was calculated by one-way ANOVA with post-hoc Fisher test or Dunnett's comparison to control or with Student's t-test analysis, as appropriate. Linear mix model was used to assess differences between treatment groups during 3-week neurological function recovery testing post-pMCAO. Statistical significance was assumed at p<0.05. A further efficacy study was conducted and employed a less severe permanent MCAO (pMCAO) model. This model, which utilized an occlusion of the distal portion of the middle cerebral artery, produced a much smaller injury contained within the sensorimotor cortex of the animal. The injury sustained in this model was less extensive but still involves the motor cortex and the rats can be assessed over the long-term (3 weeks to 3 months post-ischemia) for neurological function. In a first study with this model, rats were administered an IV bolus dose of 1, 3 or 10 mg/kg initiated at 4 hours post-ischemia and followed by 2 subsequent and equivalent doses at 7 and 10 hours. In a second study, rats were given a single IV bolus followed by a 24 hr IV infusion. Neurological function was tested every 2-3 days for 3 weeks post-MCAO.

[4] = 11.7 mg/kg IV bolus then 0.9 mg/hr infusion for 24 hours

`CN(C)Cc1cc2c([nH]c(=O)c3cccc(O)c32)s1` [2-dimethylaminomethyl-9-hydroxythieno[2,3-c]isoquinolin-5(4H)-one] was tested, and the neurological deficits ([1]; 1 mg/kg IP ×3, 48 hr post-MCAO) was “significantly reduced neurological deficits”, the “effect on neurological deficits, weight loss and infarct volume” value ([1]; 3.9 mg/kg IV bolus then 0.3 mg/hr infusion for 24 hours (lower dose)) was “No effect was seen” and the ischemic-induced weight loss [1, 4] was “significant reduction in ischemic-induced weight loss”. The “reduction in infarct volume (small but insignificant)” value [1, 4] was 10%, the neurological deficits ([1]; 11.7 mg/kg IV bolus then 0.9 mg/hr infusion for 24 hours from 4 hours post-tMCAO, 48 hours) was “significant reduction in neurological deficits” and the “reduction of infarct volume vs vehicle” value ([1]; 3×0.1 mg/kg IP at 4, 7 and 10 hours post-ischemia, 48 hours) was 20%. For the same compound, the “reduction of infarct volume vs vehicle” value ([1]; 3×1 mg/kg IP at 4, 7 and 10 hours post-ischemia, 48 hours) was 55%, the “reduction of infarct volume vs vehicle” value ([1]; 3×10 mg/kg IP at 4, 7 and 10 hours post-ischemia, 48 hours) was 66% and the “infarct volume smaller than vehicle” value [2] was 42%. The “infarct volume smaller than vehicle” value ([3]; 3 times 1 mg/kg IV bolus at 4, 7 and 10 hours) was 22%, the “infarct volume smaller than vehicle” value ([3]; 3 times 10 mg/kg IV bolus at 4, 7 and 10 hours) was 19% and the ischemia-induced weight loss ([3]; 3 times 1 or 10 mg/kg IV bolus) was “reduction of ischemia-induced weight loss”. For the same compound, the neurological deficits ([3]; 3 times 1 or 10 mg/kg IV bolus) was “reduction of neurological deficits”, the “time for which neurological recovery was maintained following ischemia” value (Wistar rats, pMCAO; 3.5 mg/kg IV bolus plus 2.5 mg/hr IV infusion for 24 hours) was “at least 3 months” and the neurological deficits (Wistar rats, pMCAO; 3.5 mg/kg IV bolus plus 2.5 mg/hr IV infusion for 24 hours, 39 days post-ischemia) was “significantly reduced neurological deficits”. For the same compound, the “neurological function, 10 mg/kg dose” value (Wistar rats, pMCAO; multiple IV bolus 10 mg/kg, 21 days post-ischemia) was “approached efficacy” and the neurological function (Wistar rats, pMCAO; multiple IV bolus 1, 3 or 10 mg/kg at 4, 7 and 10 hours, 21 days post-ischemia) was “no significant improvement in neurological function”.
